Experiment [1] concerns the target T1, DDR1 (Homo sapiens, UniProt Q08345). Kind of experiment: DDR1 cell based assay (PathHunter U2OS DDR1 assay). The arrangement: host or cells: U2OS-DDR1. The following applies: U2OS-DDR1 cells, bovine Type II Collagen 20 μg/ml, luminescence. Here is the method:
The inhibition of DDR1 receptor activation by compounds was evaluated by PathHunter® U2OS DDR1 assay (Eurofins DiscoverX), according to the manufacturer's instructions. Briefly, U2OS-DDR1 cells were seeded in white 384-well plates at a density of 5000 cells/well and incubated for 2 hours at 37° C. and 5% CO2. Cells were then treated with compounds at different concentrations and incubated for 30 minutes, before stimulation with bovine Type II Collagen 20 μg/ml and incubation overnight at 37° C. and 5% CO2. PathHunter Detection Reagents were prepared according to the protocol provided by DiscoverX and 20 μl/well of this mix were added to each well. After incubating the plates for 1 hour at room temperature in the dark, luminescence signal was acquired with a plate reader. Raw data were normalized to vehicle control (0% for normalization) and positive control (100% for normalization; cells treated with 20 μg/ml collagen II) and IC50 parameters were calculated in GraphPad Prism 8.0 software, using sigmoidal dose-response curve fitting with variable slope.

For experiment [2], the target named is T1, DDR1. Kind of experiment: DDR1 binding assay (LanthaScreen Europium Kinase Binding assay). The arrangement: purchased Carna Biosciences. The following applies: 5 nM DDR1, 20 nM Kinase Tracer 178, 1 hour at room temperature; Ki from IC50 by Cheng-Prusoff. How it is done: (§1) DDR1 and DDR2 binding assays were performed using Life Technologies LanthaScreen™ Europium Kinase Binding assay. The compounds were incubated with 5 nM DDR1 (Carna Biosciences) or 5 nM DDR2 (Life Technologies) for 1 hour at room temperature in white 384-well OptiPlate (PerkinElmer), containing 20 nM or 10 nM Kinase Tracer 178 respectively and 2 nM Europium labelled anti-GST antibody (Life Technologies) in assay buffer (50 mM HEPES pH 7.5, 10 mM MgCl2, 1 mM EGTA and 0.01% BRIJ35).
(§2) The ratio of fluorescence emission 665 nm/615 nm after excitation at 340 nm was obtained using the Tecan Spark 20M plate reader. IC50 values were determined in GraphPad Prism 7.0 software, using 4 parameter model: log(inhibitor) vs. response. IC50 values were converted in Ki using the Cheng-Prusoff equation (Ki=IC50/(1+[Tracer]/Kd).

For experiment [3], the target named is T2, DDR2 (Homo sapiens, UniProt Q16832).
T2 sequence (Q16832 22-855): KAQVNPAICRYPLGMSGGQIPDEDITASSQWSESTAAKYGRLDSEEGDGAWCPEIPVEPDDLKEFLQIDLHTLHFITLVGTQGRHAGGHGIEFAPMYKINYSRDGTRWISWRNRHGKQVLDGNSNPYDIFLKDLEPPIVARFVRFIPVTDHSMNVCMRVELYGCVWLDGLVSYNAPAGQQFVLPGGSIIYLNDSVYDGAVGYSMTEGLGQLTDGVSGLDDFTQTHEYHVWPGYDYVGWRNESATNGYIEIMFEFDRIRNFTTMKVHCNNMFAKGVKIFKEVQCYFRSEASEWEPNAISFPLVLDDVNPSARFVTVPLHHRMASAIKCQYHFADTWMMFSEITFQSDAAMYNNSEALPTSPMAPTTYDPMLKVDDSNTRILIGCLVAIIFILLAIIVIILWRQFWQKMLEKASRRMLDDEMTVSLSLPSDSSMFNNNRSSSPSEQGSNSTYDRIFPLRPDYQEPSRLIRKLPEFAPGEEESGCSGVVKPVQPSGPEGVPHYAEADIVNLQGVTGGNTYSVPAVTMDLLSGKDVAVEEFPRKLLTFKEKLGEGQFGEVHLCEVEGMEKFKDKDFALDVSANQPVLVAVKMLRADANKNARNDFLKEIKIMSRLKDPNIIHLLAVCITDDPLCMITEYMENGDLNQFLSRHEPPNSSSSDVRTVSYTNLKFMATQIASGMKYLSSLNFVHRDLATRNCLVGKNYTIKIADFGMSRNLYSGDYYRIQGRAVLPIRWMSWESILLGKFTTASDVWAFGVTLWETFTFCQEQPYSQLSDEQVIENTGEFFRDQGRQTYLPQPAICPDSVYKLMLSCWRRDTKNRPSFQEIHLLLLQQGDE
Kind of experiment: DDR2 binding assay (LanthaScreen Europium Kinase Binding assay). The arrangement: purchased Life Technologies. As to conditions: 5 nM DDR2, 10 nM Kinase Tracer 178, 1 hour at room temperature; Ki from IC50 by Cheng-Prusoff. How it is done: as §1, §2

For experiment [4], the target named is T2, DDR2. Kind of experiment: DDR2 cell based assay (phospho-ELISA in HEK293T-DDR2 recombinant cells). The arrangement: expressed in transfected cells; host or cells: HEK293T-DDR2 recombinant cells. The following applies: bovine Type II Collagen 50 μg/ml. How it is done:
The inhibition of DDR2 phosphorylation by compounds was evaluated in HEK293T-DDR2 recombinant cells by phospho-ELISA assay. Briefly, HEK293T-DDR2 cells were seeded in poly-D-lysine-coated 24-well plates at a density of 250.000 cells/well and incubated for 1.5 hours at 37° C. and 5% CO2 in DMEM+10% FBS. After that, the medium was changed to serum-free DMEM and cells were incubated for 3 hours. Then. test compounds were added at different concentrations 30 minutes before stimulation with bovine Type II Collagen at 50 μg/ml for further 3 hours. For DDR2 phospho-ELISA assay (DuoSet IC Human Phospho-DDR2; R&D Systems), protein extracts were obtained by adding 60 μl/well of lysis buffer prepared according to the manufacturer's instructions. Protein concentration in the samples was determined by BCA assay and the levels of phospho-DDR2 were determined following R&D Systems indications. Raw data were normalized to maximal inhibition control (0% for normalization) and positive control (100% for normalization; cells treated with […] collagen II) and IC50 parameters were calculated in GraphPad Prism 8.0 software, using sigmoidal dose-response curve fitting with variable slope.

A value given as a limit tells only on which side of the number the result lay.

T1 sequence (Q08345 19-913): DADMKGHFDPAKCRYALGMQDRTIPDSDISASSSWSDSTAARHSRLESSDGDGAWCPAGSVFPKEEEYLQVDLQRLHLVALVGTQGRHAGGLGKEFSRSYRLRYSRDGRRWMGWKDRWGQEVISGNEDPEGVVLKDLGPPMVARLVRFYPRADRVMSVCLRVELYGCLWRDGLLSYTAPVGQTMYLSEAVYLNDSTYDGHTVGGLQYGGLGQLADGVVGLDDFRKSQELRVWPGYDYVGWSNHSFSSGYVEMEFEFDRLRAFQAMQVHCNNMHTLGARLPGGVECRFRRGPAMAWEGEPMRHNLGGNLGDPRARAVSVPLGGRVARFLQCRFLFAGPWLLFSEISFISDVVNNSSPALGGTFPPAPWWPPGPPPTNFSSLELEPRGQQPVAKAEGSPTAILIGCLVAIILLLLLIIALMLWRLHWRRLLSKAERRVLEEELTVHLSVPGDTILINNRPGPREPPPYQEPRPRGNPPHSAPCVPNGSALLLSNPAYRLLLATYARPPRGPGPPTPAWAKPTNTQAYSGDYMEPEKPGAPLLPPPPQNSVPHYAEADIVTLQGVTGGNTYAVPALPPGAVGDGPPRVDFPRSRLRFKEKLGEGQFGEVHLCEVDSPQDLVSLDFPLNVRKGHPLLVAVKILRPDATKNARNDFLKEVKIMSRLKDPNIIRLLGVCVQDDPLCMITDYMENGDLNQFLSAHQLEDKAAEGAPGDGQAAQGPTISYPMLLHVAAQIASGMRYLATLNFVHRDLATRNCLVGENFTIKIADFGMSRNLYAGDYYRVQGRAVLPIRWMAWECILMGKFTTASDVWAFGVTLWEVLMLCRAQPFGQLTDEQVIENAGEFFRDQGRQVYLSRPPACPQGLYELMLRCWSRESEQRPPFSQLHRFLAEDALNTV

As to `Cn1ccc(-c2cncc(NCc3cc(C(=O)Nc4cccc(OC(F)(F)F)c4)ccc3F)c2)n1` [Example 35, 4-fluoro-3-(((5-(1-methyl-1H-pyrazol-3-yl)pyridin-3-yl)amino)methyl)-N-(3-(trifluoromethoxy)phenyl)benzamide], the IC50 in experiment [1] and in experiment [4] was below 10 nM each time. For the same compound, the Ki in experiment [2] and in experiment [3] was below 30 nM each time.
Consider `Cc1ccc(C(=O)Nc2cccc(OC(F)(F)F)c2)cc1CNc1cncnc1` [Example 37, 4-methyl-3-((pyrimidin-5-ylamino)methyl)-N-(3-(trifluoromethoxy)phenyl)benzamide], for which the IC50 was below 10 nM in experiment [1] and 10 to 15 nM in experiment [4]. The Ki in experiment [2] and in experiment [3] was below 30 nM each time.
For the compound `O=C(Nc1cccc(OC(F)(F)F)c1)c1ccc(F)c(CNc2cnc3[nH]ccc3c2)c1` [Example 38, 3-(((1H-pyrrolo[2,3-b]pyridin-5-yl)amino)methyl)-4-fluoro-N-(3-(trifluoromethoxy)phenyl)benzamide], the 50% inhibitory concentration (IC50) was below 10 nM in experiment [1] and 10 to 15 nM in experiment [4]. The Ki in experiment [2] and in experiment [3] was below 30 nM each time.

For the origin of these results see patent publication US20230227447A1, “BENZYLAMINE DERIVATIVES AS DDRS INHIBITORS” (CHIESI FARMACEUTICI S.P.A., priority 2020, published 2023).
